In patent publication US6958162B2, “Herbal composition for treating allergic disorders and method for making the same” (Industrial Technology Research Institute, priority 2003, dated 2005):

Key:
[1] = system: IL-4 released from EL-4 cells; experiment: Measurement of IL-4 released from stimulated EL-4 cells (ELISA); type: cell-based, mouse; conditions: FIG. 3b, 3c
Procedure: During the day of experiment, the herbal drug was diluted in the cell culture medium to the end point (0.5 μg/ml, 5 μg/ml, or as appropriate). The ability of each herbal composition and its mixtures to affect the production of IL-4, TNF-alpha, and cLT was measured.
The mouse thymoma cell lines, EL-4 were incubated with each composition or mixture for 2 hours before it was stimulated by 100 ng/ml of A23187 and PMA. Samples of tissue culture medium were collected at the end of 24 hours incubation and stored at −70 degrees C. prior to assay.
Cytokine measurements were carried out using the commercially available ELISA assay kit (R&D Systems, Minneapolis, Minn.) in accordance with the supplier's protocols. In brief, 100 μl of the assay buffer supplied was added to each of the wells of a micro-titer plate containing pre-bound anti-cytokine antibody, followed by 100 μl of a standard or sample solution, diluted appropriately for the concentration range measured. All incubations were carried out at 37 degrees C. After two hours incubation, the plates were washed four times with a wash buffer, and the second antibody, Detection Antibody, was added with 1:200 in Reagent Diluent to each well. The plates were sealed and incubated for 2 hours. […] Optical sensitivity was determined at 450 nm using a Molecular Devices of micro-titer plate reader.

[2] = system: inflammatory cells in the BAL fluids; experiment: Der p 2 induced allergic airway inflammation in mice: cell counts in BAL fluid; type: in vivo, Balb/c mice; conditions: DEX 1 μg/mouse/day, mean ± SEM
Procedure: (§1) Male Balb/c mice were obtained from the National Laboratory Breeding Research Center in Taiwan and were raised in a specific pathogen-free environment. These mice used were between 6 and 8 weeks of age. Groups of six mice were caged separately according to their treatments. Recombinant Dermatophoides pteronyssinus group 2 (Der p 2) was prepared from Dr. Tsai's lab and test drugs, Traditional Chinese Medicine A (TCM-A, or 1217A in FIGS. 7, 8, 9, and 10) and Traditional Chinese Medicine B (TCM-B, or 1217B in FIGS. 7, 8, 9, and 10) were prepared from the Biomedical Engineering Center Industrial Technology Research Institute, Hsinchu, Taiwan.
Mice were immunized by intraperitoneal (i.p.) injection of 1 μg/0.1 ml Der p 2 emulsified in 4 μg/0.062 ml aluminum hydroxide Al(OH)3 (Whitehall Lab Ltd, Punchbowel, Australia) on day 0 and day 7. After immunization, mice were fed with TCM for 3 weeks. Mice of different groups were fed with Dexamethasome (1 μg/mouse/day), TCM-A (20 mg/mouse/day), TCM-B (20 mg/mouse/day) or normal saline 500 μl/mouse/day. On days 28 and 35, mice were lightly anesthetized with an i.p. injection of 60 mg/kg of sodium pentobarbital (Sigma Chemical Co., St. Louis, Mo., USA) and intratracheally (i.t.) inoculated with 1 μg/50 μl of Der p 2. Twenty-four hours after the second i.t. inoculation, mice were sacrificed after pulmonary function measurement.
After pulmonary function measurement, bronchoalveolar lavage (BAL) was performed with the following procedure. Two separate injections of 1 ml sterile endotoxin-free saline were given into the lung via the trachea of each mouse. Approximately 1.8 ml of the bronchoalveolar lavage (BAL) fluid was recovered constantly. The BAL fluids were aspirated and stored at −70° C. until assay. After total leukocyte counting, a cytospin preparation of […] BAL fluid was stained with Liu stain (Tonyar Diagnostic Inc, Taipei County, Taiwan) and differential counts were performed on 200 cells. […] Blood samples were obtained via the orbital sinus and sera were collected and stored at −70° C. until assay.

pulmonary function = experiment: Pulmonary function determination (barometric plethysmograph, methacholine) in Der p 2 allergic mice; type: in vivo, Balb/c mice; conditions: DEX 1 μg/mouse/day, TCM 20 mg/mouse/day; result in words
Procedure: as §1, with “Taiwan. […]” for “Taiwan.”
Each mouse was placed inside a barometric plethysmograph (Buxco Electronics, Troy, N.Y.). […] The pressure signal was amplified, digitized via an A/D convert card, and sent to a computer with a BioSystem XA program (Buxco Electronics, Troy, N.Y.), which sampled and calculated desired respiratory parameters. […]
An aerosol was generated by placing a 5 ml saline or methacholine (1.56 to 50.00 mg/ml) solution in the cup of an ultrasonic nebulizer (DeVilbiss, Somerset, Pa.) and it was delivered via a connecting tube and a three-way connector to the animal chamber of the plethysmograph. […] At first, each mouse inhaled the saline aerosol for 3 mins and then the respiratory parameters were measured for 3 mins. […]

SMILES | effect on IL-4 released from EL-4 cells (excipients and powder with excipients) [1] | Differential Counts, Eos ([2]; BAL fluid, TCM 20 mg/mouse/day) | Differential Counts, Lym ([2]; BAL fluid, TCM 20 mg/mouse/day) | Differential Counts, Macro ([2]; BAL fluid, TCM 20 mg/mouse/day) | Differential Counts, Neu ([2]; BAL fluid, TCM 20 mg/mouse/day) | Total cell NO in BAL fluid ([2]; fed 3 weeks, TCM-A or TCM-B 20 mg/mouse/day) | pulmonary function of allergic animals (methacholine from low dose to high dose) (pulmonary function)
O=P([O-])([O-])[O-].O=P([O-])([O-])[O-].[Ca+2].[Ca+2].[Ca+2] [Ca3(PO4)2] | do not have any effect |  |  |  |  |  | 
C[C@@H]1C[C@H]2[C@@H]3CCC4=CC(=O)C=C[C@]4(C)[C@@]3(F)[C@@H](O)C[C@]2(C)[C@@]1(O)C(=O)CO [DEX, Dexamethasone] |  | 3.2 ± 0.4 ×10^4/ml | 9.4 ± 1.5 ×10^4/ml | 29.2 ± 4.4 ×10^4/ml | 6.6 ± 1.0 ×10^4/ml | 46.4 ± 2.2 ×10^4/ml | can improve the pulmonary function
